Format in all cases: physicochemical
The nature of data set [1]: Visual inspection of deposited aerosol particles (cascade impactor plates). To be noted: carrier containing varying percentages of ethanol in water. An excerpt: The average MMAD of the aerosol particles was 0.66 microns.
Albuterol aerosol particles produced using a carrier containing varying percentages of ethanol in water as described above were visually analyzed and determined to be dry aerosols.

Data set [2] is described as follows: Aerosol particle size distribution by cascade impactor (MOUDI) of aerosol from heated capillary passage. The note with it: carrier 20 volume % ethanol in water.
The nature of data set [3]: Observation of breakdown products / degradation during aerosol generation. The note with it: carrier including ethanol; summary of tests. An excerpt:
Clogging of the capillary size passage of the aerosol generating device was not observed during these tests.

On to `CC(C)(C)NCC(O)c1ccc(O)c(CO)c1` (stereo not drawn) [albuterol], for which the “nature of aerosol by visual analysis” value in data set [1] is listed as “dry aerosols”. Besides, the “average MMAD of the albuterol aerosol particles” value in data set [2] is recorded as “about 3 microns”. `CCCC1O[C@@H]2C[C@H]3[C@@H]4CCC5=CC(=O)C=C[C@]5(C)[C@H]4[C@@H](O)C[C@]3(C)[C@]2(C(=O)CO)O1` (stereo partly drawn) [budesonide]: in data set [3], the degradation entry was “no observable degradation”.

The values above are taken from patent US20040081624A1, “Liquid aerosol formulations and aerosol generating devices and methods for generating aerosols” (Chrysalis Technologies Incorporated, priority 2002, published 2004).
